test: Cytotoxicity assay (AlamarBlue) in mock infected MT-2 cells; type: cell-based; conditions: human
Experimental: The present assay was used to screen candidate antiviral compounds by quantification of virus spread and production over several rounds of infection in vitro. MT-2, a HIV-1 permissive human T-cell line, was seeded in microtiter plates and was simultaneously treated with serially diluted compound and inoculated with a HIV-1 NL4-3 viral clone engineered to express Renilla luciferase in place of Nef. Following treatment, the culture was incubated for 96 hours. After the incubation, media was collected and used to estimate relative infectivity on the indicator cell line, TZM-bl. Additionally, viral spread was quantified by measuring luciferase activity via a commercially available luciferase substrate. In parallel, MT-2 cells were seeded and inoculated with mock virus in the presence of serially diluted compound. Compound toxicity was quantified 96 hours after treatment with AlamarBlue.
MT-2 (NIH Aids reagent program 237) cells were grown and maintained in an incubator at 37° C. with 5% CO2 using a basal medium of RPMI-1640 supplemented with 10% FBS. Cells were seeded in 100 μl at 2×10^4 cells/well in white walled 96-well microtiter plates. Candidate compounds were 3-fold serially diluted in the appropriate solvent. Solvent without compound was used as a no drug reference. Cells were inoculated at a multiplicity of 0.027 with an HIV-1 NL4-3 virus stock engineered to express Renilla luciferase in place of Nef. Diluted virus stock was first added to serially diluted compound. Compound and virus were delivered to cells in an equal volume (100 μl) and treated cultures were returned to the incubator for 96 hours. In parallel, plates for cytotoxicity estimates were prepared in the same way except cells were plated in clear walled 96-well microtiter plates and were mock infected.
At 96 hours post treatment, 20 μl AlamarBlue proliferation reagent was added to 200 μl treated and mock infected cultures and incubated for 3 hours at 37° C. with 5% CO2 then read at 545, 590 nm on fluorescence plate reader (Biotek).
For all assays, data was imported into Accelrys Assay Explorer 3.3. In Assay Explorer, % inhibition (antiviral or cytotoxicity) was calculated using the solvent control as a reference by the following equation: 1−(SignalCompound/SignalReference). The % Inhibition and compound concentration data was fitted using the following 4-parameter logistic model (Assay Explorer model 42):
[formula] where X is compound concentration, Y is % inhibition, D is the maximum % Inhibition (constrained to 100%), C is IC50 value or inflection point, B is the hill slope, and A is the minimum % inhibition (constrained to 0%). The IC50 value is reported as the EC50 or CC50 depending on the assay endpoint. EC50 represents the effective concentration at which virus replication is inhibited by 50 percent. CC50 represents the concentration that results in the death of 50 percent of the host cells. The selectivity or therapeutic index (SI or TI), is the ratio of CC50 over EC50 and represents the relative effectiveness in inhibiting viral replication compared to inducing cell death.

Q: With `COc1cc(C)c(/C=C/C2NCCc3cc(OCc4ccccc4)c(OC)cc32)cc1OCc1ccccc1` (centres unmarked) [AF, 6-benzyloxy-1-[(E)-2-(5-benzyloxy-4-methoxy-2-methyl-phenyl)vinyl]-7-methoxy-1,2,3,4-tetrahydroisoquinoline] as the compound, how does the CC50 at 96 h read?
A: The CC50 at 96 h was 3.87 µM.

Q: For `COc1cc(/C=C/C2NCCc3cc(OCc4ccccc4)c(OC)cc32)cc(OC)c1` (centres unmarked) [AT, 6-(benzyloxy)-1-[(E)-2-(3,5-dimethoxyphenyl)ethenyl]-7-methoxy-1,2,3,4-tetrahydroisoquinoline], which CC50 at 96 h is on record?
A: The CC50 at 96 h was 4.85 µM.

Q: For `COc1ccc(/C=C/C2NCCc3cc(OCc4ccccc4)c(OC)cc32)c(OC)c1` (centres unmarked) [AV, 6-(benzyloxy)-1-[(E)-2-(2,4-dimethoxyphenyl)ethenyl]-7-methoxy-1,2,3,4-tetrahydroisoquinoline], which CC50 at 96 h is on record?
A: The CC50 at 96 h was 5.5 µM.

Q: With `COc1cc2c(cc1OCc1ccccc1)CCNC2c1cc(OCc2ccccc2)c(OC)cc1C` (centres unmarked) [AY, 6-(benzyloxy)-1-[5-(benzyloxy)-4-methoxy-2-methylphenyl]-7-methoxy-1,2,3,4-tetrahydroisoquinoline] as the compound, how does the CC50 at 96 h read?
A: Its CC50 at 96 h is 5.14 µM.

Q: For `COc1cc2c(cc1OCc1ccccc1)CCNC2c1ccccc1CNC(=O)OC(C)(C)C` (centres unmarked) [AZ, tert-butyl N-({2-[6-(benzyloxy)-7-methoxy-1,2,3,4-tetrahydroisoquinolin-1-yl]phenyl}methyl)carbamate], which CC50 at 96 h is on record?
A: Its CC50 at 96 h is 9.48 µM.

Q: For `COc1cc(C)c(/C=C/C2NCCc3cc(OCc4ccccc4)c(OC)cc32)c(C)c1` (centres unmarked) [BA, 6-(benzyloxy)-7-methoxy-1-[(E)-2-(4-methoxy-2,6-dimethylphenyl)ethenyl]-1,2,3,4-tetrahydroisoquinoline], which CC50 at 96 h is on record?
A: Its CC50 at 96 h is 3.33 µM.

Q: For `COc1cc2c(cc1OCc1ccccc1)CCNC2/C=C/c1cc2c(cc1C)OCO2` (centres unmarked) [BB, 6-(benzyloxy)-7-methoxy-1-[(E)-2-(6-methyl-2H-1,3-benzodioxol-5-yl)ethenyl]-1,2,3,4-tetrahydroisoquinoline], which CC50 at 96 h is on record?
A: Its CC50 at 96 h is 2.98 µM.

Q: With `COc1cc2c(cc1OCc1ccccc1)CCNC2/C=C/c1cc2c(cc1C)OCCO2` (centres unmarked) [BC, 6-(benzyloxy)-7-methoxy-1-[(E)-2-(7-methyl-2,3-dihydro-1,4-benzodioxin-6-yl)ethenyl]-1,2,3,4-tetrahydroisoquinoline] as the compound, how does the CC50 at 96 h read?
A: The CC50 at 96 h was 2.43 µM.

Q: With `CCCCOc1ccc(/C=C/C2NCCc3cc(OCc4ccccc4)c(OC)cc32)cc1OC` (centres unmarked) [BD, 6-(benzyloxy)-1-[(E)-2-(4-butoxy-3-methoxyphenyl)ethenyl]-7-methoxy-1,2,3,4-tetrahydroisoquinoline] as the compound, how does the CC50 at 96 h read?
A: The CC50 at 96 h was 3.62 µM.

Q: For `CCCCOc1cc(/C=C/C2NCCc3cc(OCc4ccccc4)c(OC)cc32)ccc1OC` (centres unmarked) [BE, 6-(benzyloxy)-1-[(E)-2-(3-butoxy-4-methoxyphenyl)ethenyl]-7-methoxy-1,2,3,4-tetrahydroisoquinoline], which CC50 at 96 h is on record?
A: Its CC50 at 96 h is 3.75 µM.

Q: For `COc1ccc(/C=C/C2NCCc3cc(OCc4ccccc4)c(OC)cc32)cc1F` (centres unmarked) [BF, 6-(benzyloxy)-1-[(E)-2-(3-fluoro-4-methoxyphenyl)ethenyl]-7-methoxy-1,2,3,4-tetrahydroisoquinoline], which CC50 at 96 h is on record?
A: The CC50 at 96 h was 33.5 µM.

Q: With `COc1cc2c(cc1OCc1ccccc1)CCNC2/C=C/c1ccc(N(C)C)cc1C` (centres unmarked) [BG, 4-[(E)-2-[6-(benzyloxy)-7-methoxy-1,2,3,4-tetrahydroisoquinolin-1-yl]ethenyl]-N,N,3-trimethylaniline] as the compound, how does the CC50 at 96 h read?
A: The CC50 at 96 h was 4.44 µM.

Q: For `COc1cc2c(cc1OCc1ccccc1)CCNC2/C=C/c1cc(OC(F)(F)F)ccc1C` (centres unmarked) [BH, 6-(benzyloxy)-7-methoxy-1-[(E)-2-[2-methyl-5-(trifluoromethoxy)phenyl]ethenyl]-1,2,3,4-tetrahydroisoquinoline], which CC50 at 96 h is on record?
A: Its CC50 at 96 h is 5.3 µM.

Q: For `COc1cc2c(cc1OCc1ccccc1)CCNC2/C=C/c1ccccc1` (centres unmarked) [BI, 6-(benzyloxy)-7-methoxy-1-[(E)-2-phenylethenyl]-1,2,3,4-tetrahydroisoquinoline], which CC50 at 96 h is on record?
A: The CC50 at 96 h was 10 µM.

Q: Which CC50 at 96 h does the source give for `COc1ccc(/C=C/C2NCCc3cc(OCc4ccccc4)c(OC)cc32)cc1` (centres unmarked) [BJ, 6-(benzyloxy)-7-methoxy-1-[(E)-2-(4-methoxyphenyl)ethenyl]-1,2,3,4-tetrahydroisoquinoline] here?
A: The CC50 at 96 h was 20.9 µM.

Q: With `COc1cc2c(cc1OCc1ccccc1)CCNC2/C=C/c1cccc(OCc2ccccc2)c1` (centres unmarked) [BK, 6-(benzyloxy)-1-[(E)-2-[3-(benzyloxy)phenyl]ethenyl]-7-methoxy-1,2,3,4-tetrahydroisoquinoline] as the compound, how does the CC50 at 96 h read?
A: Its CC50 at 96 h is 4 µM.

Q: For `CCCCOc1cc(/C=C/C2NCCc3cc(OCc4ccccc4)c(OC)cc32)c(C)cc1OC` (centres unmarked) [BL, 6-(benzyloxy)-1-[(E)-2-(5-butoxy-4-methoxy-2-methylphenyl)ethenyl]-7-methoxy-1,2,3,4-tetrahydroisoquinoline], which CC50 at 96 h is on record?
A: Its CC50 at 96 h is 1.1 µM.

Q: With `COc1cc2c(cc1OCc1ccccc1)CCNC2/C=C/c1ccc2c(c1)CCO2` (centres unmarked) [BM, 6-(benzyloxy)-1-[(E)-2-(2,3-dihydro-1-benzofuran-5-yl)ethenyl]-7-methoxy-1,2,3,4-tetrahydroisoquinoline] as the compound, how does the CC50 at 96 h read?
A: Its CC50 at 96 h is 20.4 µM.

Q: With `COc1cc2c(cc1OCc1ccccc1)CCNC2/C=C/c1ccc2occc2c1` (centres unmarked) [BN, 1-[(E)-2-(1-benzofuran-5-yl)ethenyl]-6-(benzyloxy)-7-methoxy-1,2,3,4-tetrahydroisoquinoline] as the compound, how does the CC50 at 96 h read?
A: Its CC50 at 96 h is 20.7 µM.

Q: Which CC50 at 96 h does the source give for `COc1cc(C)c(/C=C/C2NCCc3cc(OCc4ccccc4)c(OC)cc32)cc1OCCCC(=O)O` (centres unmarked) [BO, 4-{5-[(E)-2-[6-(benzyloxy)-7-methoxy-1,2,3,4-tetrahydroisoquinolin-1-yl]ethenyl]-2-methoxy-4-methylphenoxy}butanoic acid] here?
A: The CC50 at 96 h was 8.96 µM.

Q: For `COc1cc(F)c(/C=C/C2NCCc3cc(OCc4ccccc4)c(OC)cc32)cc1OC` (centres unmarked) [BP, 6-(benzyloxy)-1-[(E)-2-(2-fluoro-4,5-dimethoxyphenyl)ethenyl]-7-methoxy-1,2,3,4-tetrahydroisoquinoline], which CC50 at 96 h is on record?
A: The CC50 at 96 h was 5.61 µM.

Q: With `COc1ccc(/C=C/C2NCCc3cc(OCc4ccccc4)c(OC)cc32)cc1OC` (centres unmarked) [BQ, 6-(benzyloxy)-1-[(E)-2-(3,4-dimethoxyphenyl)ethenyl]-7-methoxy-1,2,3,4-tetrahydroisoquinoline] as the compound, how does the CC50 at 96 h read?
A: Its CC50 at 96 h is 8.7 µM.

Q: With `COc1ccc(/C=C/C2NCCc3cc(OCc4ccccc4)c(OC)cc32)c(F)c1` (centres unmarked) [BR, 6-(benzyloxy)-1-[(E)-2-(2-fluoro-4-methoxyphenyl)ethenyl]-7-methoxy-1,2,3,4-tetrahydroisoquinoline] as the compound, how does the CC50 at 96 h read?
A: Its CC50 at 96 h is 10 µM.

Q: For `COc1cc2c(cc1OCc1ccccc1)CCNC2/C=C/c1sccc1C` (centres unmarked) [BS, 6-(benzyloxy)-7-methoxy-1-[(E)-2-(3-methylthiophen-2-yl)ethenyl]-1,2,3,4-tetrahydroisoquinoline], which CC50 at 96 h is on record?
A: The CC50 at 96 h was 11.3 µM.

Q: For `COc1cc(F)c(/C=C/C2NCCc3cc(OCc4ccccc4)c(OC)cc32)c(F)c1` (centres unmarked) [BU, 6-(benzyloxy)-1-[(E)-2-(2,6-difluoro-4-methoxyphenyl)ethenyl]-7-methoxy-1,2,3,4-tetrahydroisoquinoline], which CC50 at 96 h is on record?
A: The CC50 at 96 h was 10.6 µM.

Q: With `COc1cc(C)c(/C=C/C2NCCc3cc(OCc4ccccc4)c(OC)cc32)cc1C` (centres unmarked) [BV, 6-(benzyloxy)-7-methoxy-1-[(E)-2-(4-methoxy-2,5-dimethylphenyl)ethenyl]-1,2,3,4-tetrahydroisoquinoline] as the compound, how does the CC50 at 96 h read?
A: Its CC50 at 96 h is 2.63 µM.

same assay, conditions: human; mock infected MT-2 cells, 96 hours, AlamarBlue; read-out: CC50

Q: Which CC50 at 96 h does the source give for `COc1cc2c(cc1OCc1ccccc1)CCNC2/C=C/c1cc(OC)c(OCc2ccccc2)c(OC)c1` (centres unmarked) [AP, 6-(benzyloxy)-1-[(E)-2-[4-(benzyloxy)-3,5-dimethoxyphenyl]ethenyl]-7-methoxy-1,2,3,4-tetrahydroisoquinoline] here?
A: Its CC50 at 96 h is 1.64 µM.

Q: Which CC50 at 96 h does the source give for `COc1cc(OC)c(OC)cc1/C=C/C1NCCc2cc(OCc3ccccc3)c(OC)cc21` (centres unmarked) [AQ, 6-(benzyloxy)-7-methoxy-1-[(E)-2-(2,4,5-trimethoxyphenyl)ethenyl]-1,2,3,4-tetrahydroisoquinoline] here?
A: Its CC50 at 96 h is 1.98 µM.

Q: With `COc1ccc(/C=C/C2NCCc3cc(OCc4ccccc4)c(OC)cc32)cc1Br` (centres unmarked) [AR, 6-(benzyloxy)-1-[(E)-2-(3-bromo-4-methoxyphenyl)ethenyl]-7-methoxy-1,2,3,4-tetrahydroisoquinoline] as the compound, how does the CC50 at 96 h read?
A: Its CC50 at 96 h is 6.2 µM.

Q: With `COc1cc(/C=C/C2NCCc3cc(OCc4ccccc4)c(OC)cc32)ccn1` (centres unmarked) [AU, 6-benzyloxy-7-methoxy-1-[(E)-2-(2-methoxy-4-pyridyl)vinyl]-1,2,3,4-tetrahydroisoquinoline] as the compound, how does the CC50 at 96 h read?
A: The CC50 at 96 h was 3.22 µM.

Q: With `COc1cc2c(cc1OCc1ccccc1)CCNC2/C=C/c1ccncc1` (centres unmarked) [AW, 6-(benzyloxy)-7-methoxy-1-[(E)-2-(pyridin-4-yl)ethenyl]-1,2,3,4-tetrahydroisoquinoline] as the compound, how does the CC50 at 96 h read?
A: The CC50 at 96 h was 11.4 µM.

Q: Which CC50 at 96 h does the source give for `COc1ccc(/C=C/C2NCCc3cc(OCc4ccccc4)c(OC)cc32)cn1` (centres unmarked) [AX, 6-benzyloxy-7-methoxy-1-[(E)-2-(6-methoxy-3-pyridyl)vinyl]-1,2,3,4-tetrahydroisoquinoline] here?
A: Its CC50 at 96 h is 11.4 µM.

From patent US9518022B2, “Anti-HIV compounds” (priority 2014, dated 2016)
